For 16 molecules, TGI and GI50 results are on record in PubChem BioAssay (NCI).

SMILES strings stand for the structures.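 Cultured in 96-well plates, cells were exposed to test compound for 48 hours across five concentrations. GI50 is the concentration that inhibits growth by half. TGI: concentration producing complete growth inhibition.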

Among the test systems are HS 578T breast; PC-3 prostate; 786-0 renal; NCI-H226 lung; NCI/ADR-RES ovarian; U251 CNS; OVCAR-3 ovarian; OVCAR-5 ovarian; SR leukemia; SF-539 CNS.
Holding throughout (assay): NCI tumour cell line growth inhibition, 48 h

With `CC(C)(C)OC(=O)NCC(=O)N1CCCN(C(=O)CNC(=O)OC(C)(C)C)CC1`, the TGI with HS 578T breast, with PC-3 prostate, in the assay on 786-0 renal, with NCI-H226 lung, with NCI/ADR-RES ovarian and with U251 CNS was more than 100 µM each time. Also, the TGI with OVCAR-3 ovarian and in the assay with OVCAR-5 ovarian was more than 100 µM in each case.

For the molecule `O=C(O)C1SCCS1`, the TGI with PC-3 prostate, with 786-0 renal, with SR leukemia, in the assay with NCI-H226 lung, with NCI/ADR-RES ovarian and in the assay with U251 CNS was more than 100 µM each time. Moreover, the TGI with OVCAR-3 ovarian and in the assay with OVCAR-5 ovarian was more than 100 µM throughout.

In the case of `O=C(NN1C(=O)C=CC1=O)c1ccccc1Nc1ccccc1C(=O)NN1C(=O)C=CC1=O`, the TGI in the assay on SF-539 CNS, in the assay on PC-3 prostate, with 786-0 renal, with SR leukemia, in the assay on NCI-H226 lung and in the assay with NCI/ADR-RES ovarian was more than 100 µM each time. The TGI in the assay with U251 CNS, with OVCAR-3 ovarian and with OVCAR-5 ovarian was more than 100 µM each time.

`COc1ccc2c(c1)-c1nn(CCN(C)C)c3ccc(C(=O)NCCCN(C)CCCNC(=O)c4ccc5c6c(nn5CCN(C)C)-c5cc(OC)ccc5Nc46)c(c13)N2`: the TGI in the assay with SF-539 CNS is 1.56 µM; with PC-3 prostate, 1.09 µM; in the assay on 786-0 renal it was 1.9 µM; in the assay with SR leukemia, 3.39 µM; in the assay on NCI-H226 lung, 0.541 µM; with NCI/ADR-RES ovarian, more than 62.9 µM. The figures for the TGI in the assay with U251 CNS, in the assay with OVCAR-3 ovarian and with OVCAR-5 ovarian were 0.825 µM, 3.23 µM and 1.66 µM, respectively.

With `COc1ccc(/C=C2\CN(C)Cc3c2[nH]c(=O)c(C#N)c3-c2ccc(OC)cc2)cc1`, the TGI with HS 578T breast was more than 100 µM; in the assay with PC-3 prostate it was more than 100 µM; in the assay on 786-0 renal, 51.1 µM; with NCI-H226 lung, more than 100 µM; with NCI/ADR-RES ovarian, more than 100 µM; in the assay on U251 CNS, more than 100 µM. Also, the TGI in the assay on OVCAR-3 ovarian and in the assay with OVCAR-5 ovarian was more than 100 µM each time.

Regarding `C/C=C\C(CC(=O)NCCC1CN(C(=O)c2ccccc2)c2ccccc21)CC(=O)OC` (configuration not stated), the TGI in the assay on HS 578T breast, in the assay with PC-3 prostate, with 786-0 renal, in the assay on NCI/ADR-RES ovarian, in the assay on U251 CNS and in the assay with OVCAR-3 ovarian was more than 100 µM throughout. The molecule also gave a TGI with OVCAR-5 ovarian of more than 100 µM.

Turning to `CC(C)(NC1=NCCO1)c1ccccc1`, the TGI in the assay on SF-539 CNS, in the assay with HS 578T breast, in the assay with PC-3 prostate, in the assay with 786-0 renal, with NCI-H226 lung and in the assay on NCI/ADR-RES ovarian was more than 100 µM throughout. The TGI in the assay with U251 CNS, in the assay with OVCAR-3 ovarian and with OVCAR-5 ovarian was more than 100 µM in each case.

`CS(=O)(=O)O.[Ag]`: the TGI with SF-539 CNS is 32.1 µM; with HS 578T breast, more than 100 µM; in the assay on PC-3 prostate it was 27.2 µM; in the assay on 786-0 renal it was 29.9 µM; in the assay with NCI-H226 lung it was 51.4 µM; in the assay on NCI/ADR-RES ovarian, 74.3 µM. In addition, the TGI was found to be 30.6 µM with U251 CNS, 88.5 µM with OVCAR-3 ovarian and 35 µM in the assay on OVCAR-5 ovarian.

For `CC(=O)Nc1ccc(-c2nnc(SCC(=O)Nc3ccccc3C)o2)cc1`, the TGI with SF-539 CNS, with 786-0 renal, with SR leukemia, with NCI-H226 lung, in the assay on U251 CNS and in the assay on OVCAR-3 ovarian was more than 100 µM in each case. In the assay with OVCAR-5 ovarian, the TGI is more than 100 µM.

`CC(C)CCC[C@@H](C)[C@H]1CCC2C3=CCC4C(=O)C=CC(=O)C4C3CC[C@@]21C` (some centres not stated): the GI50 in the assay with HS 578T breast was 0.528 µM; in the assay on PC-3 prostate, 0.101 µM; in the assay on SR leukemia, 0.263 µM; with NCI-H226 lung, 0.849 µM; in the assay with OVCAR-3 ovarian it was 0.348 µM; with OVCAR-5 ovarian, 0.212 µM. Also, the TGI was more than 20.9 µM in the assay with HS 578T breast, more than 100 µM in the assay with SR leukemia, more than 100 µM in the assay with NCI-H226 lung and more than 100 µM in the assay on OVCAR-5 ovarian.

Take `Clc1ncnc2c1ncn2CCCCCCCCCCCCn1cnc2c(Cl)ncnc21`: the TGI in the assay on SF-539 CNS was 27.8 µM; in the assay on 786-0 renal, 71.8 µM; with SR leukemia, 3.82 µM; in the assay with NCI-H226 lung, 24.5 µM; in the assay with U251 CNS it was 23.7 µM; in the assay with OVCAR-3 ovarian, 23.3 µM. In the assay with OVCAR-5 ovarian, this molecule returned a TGI of 72.7 µM.

As for `Nc1nc2cc(CNc3ccc(C(=O)NC(CCC(=O)O)C(=O)O)cc3)ccc2nc1-c1ccccc1` (configuration not stated), the TGI with SF-539 CNS, in the assay with HS 578T breast, in the assay with PC-3 prostate, in the assay with 786-0 renal, in the assay on NCI-H226 lung and in the assay with NCI/ADR-RES ovarian was more than 10 µM in each case. For the same molecule, the TGI in the assay with U251 CNS, in the assay on OVCAR-3 ovarian and in the assay on OVCAR-5 ovarian was more than 10 µM throughout.

Take `N#Cc1c(N2CCN(c3ccc([N+](=O)[O-])cc3)CC2)[n+](=O)c2ccc(Cl)cc2n1[O-]`: the TGI with SF-539 CNS is 4.37 µM; with HS 578T breast, more than 100 µM; in the assay on PC-3 prostate, more than 36.2 µM; with 786-0 renal, 4.58 µM; with NCI-H226 lung, 13.8 µM; in the assay on NCI/ADR-RES ovarian, 7.85 µM. Further, the TGI was determined as 5.81 µM in the assay with U251 CNS and 29.1 µM in the assay with OVCAR-5 ovarian.

Take `CC(=O)NC1=C(NCc2ccc(Cl)cc2)C(=O)c2ccccc2C1=O`: the TGI with SF-539 CNS is 10.5 µM; in the assay with 786-0 renal it was 15.7 µM; in the assay with SR leukemia it was 29.9 µM; in the assay on NCI-H226 lung, 26.1 µM; in the assay on U251 CNS it was 24.2 µM; in the assay on OVCAR-3 ovarian, 13.1 µM.

On to `COc1nc2[nH]ccc2c(=O)n1C`, for which the TGI in the assay on SF-539 CNS, with SR leukemia, in the assay on U251 CNS and with OVCAR-5 ovarian was more than 100 µM each time.

With `COc1ccc(/C=N/n2c(Cc3ccc(Cl)cc3)n[nH]c2=O)c(OC)c1`, the TGI in the assay on SF-539 CNS is more than 100 µM; in the assay on HS 578T breast, 37.3 µM; in the assay on PC-3 prostate it was more than 100 µM; with 786-0 renal it was 52.8 µM; in the assay with NCI-H226 lung, 61.2 µM; in the assay with NCI/ADR-RES ovarian, 45.2 µM. For the same molecule, the TGI with U251 CNS, in the assay with OVCAR-3 ovarian and in the assay with OVCAR-5 ovarian was more than 100 µM throughout.
